Measured values as given in ChEMBL document CHEMBL1150401, “Genotoxicity of alpha-asarone analogues” (Bioorg Med Chem, 2008).

Tests used:
[1] = tested on: Salmonella typhimurium; assay: Mutagenic activity in Salmonella Typhimurium TA100 assessed as number of his+ revertants at 1000 ug/plate after 48 to 72 hrs by Ames test in absence of S9 fraction; type: toxicity, organism-based; settings: salmonella enterica subsp. enterica serovar typhimurium
[2] = tested on: Salmonella typhimurium; assay: Mutagenic activity in Salmonella Typhimurium TA98 assessed as number of his+ revertants at 500 ug/plate after 48 to 72 hrs by Ames test in presence of S9 fraction; type: toxicity, organism-based; settings: salmonella enterica subsp. enterica serovar typhimurium
[3] = tested on: Salmonella typhimurium; assay: Mutagenic activity in Salmonella Typhimurium TA102 assessed as number of his+ revertants at 100 ug/plate after 48 to 72 hrs by Ames test in absence of S9 fraction; type: toxicity, organism-based; settings: salmonella enterica subsp. enterica serovar typhimurium
[4] = tested on: Salmonella typhimurium; assay: Mutagenic activity in Salmonella Typhimurium TA100 assessed as number of his+ revertants at 100 ug/plate after 48 to 72 hrs by Ames test in absence of S9 fraction; type: toxicity, organism-based; settings: salmonella enterica subsp. enterica serovar typhimurium
[5] = tested on: Salmonella typhimurium; assay: Mutagenic activity in Salmonella Typhimurium TA102 assessed as number of his+ revertants at 1000 ug/plate after 48 to 72 hrs by Ames test in absence of S9 fraction; type: toxicity, organism-based; settings: salmonella enterica subsp. enterica serovar typhimurium
[6] = tested on: Salmonella typhimurium; assay: Cytotoxicity against Salmonella Typhimurium TA97 assessed as reduction in his+ revertants number at 500 ug/plate after 48 to 72 hrs in absence of S9 fraction; type: functional, Salmonella enterica subsp. enterica serovar Typhimurium; set-up: scale not given: the % may be the effect or the level left
[7] = tested on: Salmonella typhimurium; assay: Mutagenic activity in Salmonella Typhimurium TA97 assessed as number of his+ revertants at 100 ug/plate after 48 to 72 hrs by Ames test in presence of S9 fraction; type: toxicity, organism-based; settings: salmonella enterica subsp. enterica serovar typhimurium
[8] = tested on: Salmonella typhimurium; assay: Mutagenic activity in Salmonella Typhimurium TA100 assessed as number of his+ revertants at 100 ug/plate after 48 to 72 hrs by Ames test in presence of S9 fraction; type: toxicity, organism-based; settings: salmonella enterica subsp. enterica serovar typhimurium
[9] = tested on: Salmonella typhimurium; assay: Mutagenic activity in Salmonella Typhimurium TA102 assessed as number of his+ revertants at 1000 ug/plate after 48 to 72 hrs by Ames test in presence of S9 fraction; type: toxicity, organism-based; settings: salmonella enterica subsp. enterica serovar typhimurium
[10] = tested on: Salmonella typhimurium; assay: Mutagenic activity in Salmonella Typhimurium TA97 assessed as number of his+ revertants at 1000 ug/plate after 48 to 72 hrs by Ames test in absence of S9 fraction; type: toxicity, organism-based; settings: salmonella enterica subsp. enterica serovar typhimurium
[11] = tested on: Salmonella typhimurium; assay: Cytotoxicity against Salmonella Typhimurium TA102 assessed as reduction in his+ revertants number at 500 ug/plate after 48 to 72 hrs in absence of S9 fraction; type: functional, Salmonella enterica subsp. enterica serovar Typhimurium; set-up: scale not given: the % may be the effect or the level left
[12] = tested on: Salmonella typhimurium; assay: Mutagenic activity in Salmonella Typhimurium TA98 assessed as number of his+ revertants at 500 ug/plate after 48 to 72 hrs by Ames test in absence of S9 fraction; type: toxicity, organism-based; settings: salmonella enterica subsp. enterica serovar typhimurium
[13] = tested on: Salmonella typhimurium; assay: Mutagenic activity in Salmonella Typhimurium TA97 assessed as number of his+ revertants at 100 ug/plate after 48 to 72 hrs by Ames test in absence of S9 fraction; type: toxicity, organism-based; settings: salmonella enterica subsp. enterica serovar typhimurium
[14] = tested on: Salmonella typhimurium; assay: Cytotoxicity against Salmonella Typhimurium TA98 assessed as reduction in his+ revertants number at 500 ug/plate after 48 to 72 hrs in absence of S9 fraction; type: functional, Salmonella enterica subsp. enterica serovar Typhimurium; set-up: scale not given: the % may be the effect or the level left
[15] = tested on: Salmonella typhimurium; assay: Mutagenic activity in Salmonella Typhimurium TA98 assessed as number of his+ revertants at 1000 ug/plate after 48 to 72 hrs by Ames test in presence of S9 fraction; type: toxicity, organism-based; settings: salmonella enterica subsp. enterica serovar typhimurium
[16] = tested on: Salmonella typhimurium; assay: Cytotoxicity against Salmonella Typhimurium TA100 assessed as reduction in his+ revertants number at 500 ug/plate after 48 to 72 hrs in presence of S9 fraction; type: functional, Salmonella enterica subsp. enterica serovar Typhimurium; set-up: scale not given: the % may be the effect or the level left
[17] = tested on: Salmonella typhimurium; assay: Mutagenic activity in Salmonella Typhimurium TA98 assessed as number of his+ revertants at 100 ug/plate after 48 to 72 hrs by Ames test in absence of S9 fraction; type: toxicity, organism-based; settings: salmonella enterica subsp. enterica serovar typhimurium
[18] = tested on: Salmonella typhimurium; assay: Cytotoxicity against Salmonella Typhimurium TA97 assessed as reduction in his+ revertants number at 500 ug/plate after 48 to 72 hrs in presence of S9 fraction; type: functional, Salmonella enterica subsp. enterica serovar Typhimurium; set-up: scale not given: the % may be the effect or the level left
[19] = tested on: Salmonella typhimurium; assay: Mutagenic activity in Salmonella Typhimurium TA97 assessed as number of his+ revertants at 1000 ug/plate after 48 to 72 hrs by Ames test in presence of S9 fraction; type: toxicity, organism-based; settings: salmonella enterica subsp. enterica serovar typhimurium
[20] = tested on: L929; assay: Genotoxicity against mouse L929 cells assessed as number of micronuclei at 100 ug/ml; type: toxicity, cell-based
[21] = tested on: Salmonella typhimurium; assay: Mutagenic activity in Salmonella Typhimurium TA97 assessed as number of his+ revertants at 500 ug/plate after 48 to 72 hrs by Ames test in presence of S9 fraction; type: toxicity, organism-based; settings: salmonella enterica subsp. enterica serovar typhimurium
[22] = tested on: Salmonella typhimurium; assay: Cytotoxicity against Salmonella Typhimurium TA98 assessed as reduction in his+ revertants number at 500 ug/plate after 48 to 72 hrs in presence of S9 fraction; type: functional, Salmonella enterica subsp. enterica serovar Typhimurium; set-up: scale not given: the % may be the effect or the level left
[23] = tested on: Salmonella typhimurium; assay: Mutagenic activity in Salmonella Typhimurium TA100 assessed as number of his+ revertants at 500 ug/plate after 48 to 72 hrs by Ames test in absence of S9 fraction; type: toxicity, organism-based; settings: salmonella enterica subsp. enterica serovar typhimurium
[24] = tested on: Salmonella typhimurium; assay: Mutagenic activity in Salmonella Typhimurium TA102 assessed as number of his+ revertants at 500 ug/plate after 48 to 72 hrs by Ames test in presence of S9 fraction; type: toxicity, organism-based; settings: salmonella enterica subsp. enterica serovar typhimurium
[25] = tested on: Salmonella typhimurium; assay: Mutagenic activity in Salmonella Typhimurium TA102 assessed as number of his+ revertants at 100 ug/plate after 48 to 72 hrs by Ames test in presence of S9 fraction; type: toxicity, organism-based; settings: salmonella enterica subsp. enterica serovar typhimurium
[26] = tested on: Salmonella typhimurium; assay: Mutagenic activity in Salmonella Typhimurium TA98 assessed as number of his+ revertants at 100 ug/plate after 48 to 72 hrs by Ames test in presence of S9 fraction; type: toxicity, organism-based; settings: salmonella enterica subsp. enterica serovar typhimurium
[27] = tested on: Salmonella typhimurium; assay: Mutagenic activity in Salmonella Typhimurium TA102 assessed as number of his+ revertants at 500 ug/plate after 48 to 72 hrs by Ames test in absence of S9 fraction; type: toxicity, organism-based; settings: salmonella enterica subsp. enterica serovar typhimurium
[28] = tested on: Salmonella typhimurium; assay: Cytotoxicity against Salmonella Typhimurium TA100 assessed as reduction in his+ revertants number at 500 ug/plate after 48 to 72 hrs in absence of S9 fraction; type: functional, Salmonella enterica subsp. enterica serovar Typhimurium; set-up: scale not given: the % may be the effect or the level left
[29] = tested on: Salmonella typhimurium; assay: Mutagenic activity in Salmonella Typhimurium TA98 assessed as number of his+ revertants at 1000 ug/plate after 48 to 72 hrs by Ames test in absence of S9 fraction; type: toxicity, organism-based; settings: salmonella enterica subsp. enterica serovar typhimurium
[30] = tested on: Salmonella typhimurium; assay: Mutagenic activity in Salmonella Typhimurium TA100 assessed as number of his+ revertants at 1000 ug/plate after 48 to 72 hrs by Ames test in presence of S9 fraction; type: toxicity, organism-based; settings: salmonella enterica subsp. enterica serovar typhimurium
[31] = tested on: Salmonella typhimurium; assay: Mutagenic activity in Salmonella Typhimurium TA97 assessed as number of his+ revertants at 500 ug/plate after 48 to 72 hrs by Ames test in absence of S9 fraction; type: toxicity, organism-based; settings: salmonella enterica subsp. enterica serovar typhimurium
[32] = tested on: Salmonella typhimurium; assay: Cytotoxicity against Salmonella Typhimurium TA102 assessed as reduction in his+ revertants number at 500 ug/plate after 48 to 72 hrs in presence of S9 fraction; type: functional, Salmonella enterica subsp. enterica serovar Typhimurium; set-up: scale not given: the % may be the effect or the level left
[33] = tested on: Salmonella typhimurium; assay: Mutagenic activity in Salmonella Typhimurium TA100 assessed as number of his+ revertants at 500 ug/plate after 48 to 72 hrs by Ames test in presence of S9 fraction; type: toxicity, organism-based; settings: salmonella enterica subsp. enterica serovar typhimurium
[34] = tested on: Salmonella typhimurium; assay: Cytotoxicity against Salmonella Typhimurium TA102 assessed as growth inhibition oh his+ revertants after 48 to 72 hrs; type: functional, Salmonella enterica subsp. enterica serovar Typhimurium; set-up: scale not given: the % may be the effect or the level left
[35] = tested on: Salmonella typhimurium; assay: Cytotoxicity against Salmonella Typhimurium TA102 assessed as reduction in his+ revertants after 48 to 72 hrs in presence of S9 fraction; type: functional, Salmonella enterica subsp. enterica serovar Typhimurium; set-up: scale not given: the % may be the effect or the level left
[36] = tested on: Salmonella typhimurium; assay: Cytotoxicity against Salmonella Typhimurium TA102 assessed as reduction in his+ revertants after 48 to 72 hrs in absence of S9 fraction; type: functional, Salmonella enterica subsp. enterica serovar Typhimurium; set-up: scale not given: the % may be the effect or the level left
[37] = tested on: L929; assay: Genotoxicity against mouse L929 cells assessed as number of micronuclei at 50 ug/ml; type: toxicity, cell-based
[38] = tested on: Salmonella typhimurium; assay: Cytotoxicity against Salmonella Typhimurium TA100 assessed as reduction in his+ revertants after 48 to 72 hrs in presence of S9 fraction; type: functional, Salmonella enterica subsp. enterica serovar Typhimurium; set-up: scale not given: the % may be the effect or the level left
[39] = tested on: Salmonella typhimurium; assay: Cytotoxicity against Salmonella Typhimurium TA100 assessed as growth inhibition after 48 to 72 hrs; type: functional, Salmonella enterica subsp. enterica serovar Typhimurium; set-up: scale not given: the % may be the effect or the level left
[40] = tested on: Salmonella typhimurium; assay: Cytotoxicity against Salmonella Typhimurium TA98 assessed as reduction in his+ revertants after 48 to 72 hrs in presence of S9 fraction; type: functional, Salmonella enterica subsp. enterica serovar Typhimurium; set-up: scale not given: the % may be the effect or the level left
[41] = tested on: Salmonella typhimurium; assay: Cytotoxicity against Salmonella Typhimurium TA97 assessed as reduction in his+ revertants after 48 to 72 hrs in presence of S9 fraction; type: functional, Salmonella enterica subsp. enterica serovar Typhimurium; set-up: scale not given: the % may be the effect or the level left
[42] = tested on: Salmonella typhimurium; assay: Cytotoxicity against Salmonella Typhimurium TA97 assessed as growth inhibition after 48 to 72 hrs; type: functional, Salmonella enterica subsp. enterica serovar Typhimurium; set-up: scale not given: the % may be the effect or the level left

SMILES	Activity [1]	Activity [2]	Activity [3]	Activity [4]	Activity [7]	Activity [8]	Activity [9]	Activity [10]	Activity [12]	Activity [13]	Activity [15]	Activity [17]	Activity [19]	Activity [21]	Activity [23]	Activity [24]	Activity [25]	Activity [26]	Activity [27]	Activity [29]	further results
C/C=C/c1ccc(OC)c(OC)c1OC	100	43	236	108	212	167	233	131	22	151	26	27	172	200	116	335	343	44	203	20	Activity [5]: 160; Activity [6]: 23%; Activity [11]: 23%; Activity [14]: 23%; Activity [16]: 9%; Activity [18]: 9%; Activity [20]: 3.79%; Activity [22]: 9%; Activity [28]: 23%; Activity [30]: 132; Activity [31]: 151; Activity [32]: 9%; Activity [33]: 160
C/C=C/c1c(OC)cc(OC)cc1OC	148	18	275	138	175	153	218	223	32	163	22	32	187	200	134	328	333	24	298	26	Activity [5]: 195; Activity [34]: 28%; Activity [35]: 27%; Activity [30]: 126; Activity [31]: 190; Activity [36]: 28%; Activity [33]: 156; Activity [37]: 3.44%
C/C=C/c1cc(OC)c(OC)c(OC)c1	73	18	241	109	194	119	165	73	24	109	15	30	155	164	88	236	281	30	155	32	Activity [38]: 22%; Activity [39]: 44%; Activity [40]: 22%; Activity [41]: 22%; Activity [35]: 22%; Activity [20]: 1.74%; Activity [30]: 87; Activity [31]: 88; Activity [33]: 108; Activity [42]: 59%
C/C=C/c1c(OC)ccc(OC)c1OC.CC(C)CCC[C@@H](C)[C@H]1CC[C@H]2[C@@H]3CC=C4C[C@@H](O)CC[C@]4(C)[C@H]3CC[C@]12C	96	27	270	112	191	188	49	141	26	153	42	26	171	126	104	162	270	35	159	23	Activity [5]: 90; Activity [34]: 28%; Activity [35]: 46%; Activity [20]: 1.61%; Activity [30]: 162; Activity [31]: 137; Activity [36]: 43%; Activity [33]: 186
